Here are results for 4 compounds from patent US9708314B2, “Heterocyclic amide compound” (NISSAN CHEMICAL INDUSTRIES, LTD., priority 2013, dated 2017).

What all share (assay type): in vivo
The subject of series [1] is Echinochloa oryzacola Vasing. The series can be described thus: Test Example 2: herbicidal activity, application during weed generation in submerged conditions. The note with it: Eighteenth Table. In a few lines: (§1)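 Scored three weeks post-application on a 0–5 scale (5: ≥90% herbicidal ratio, almost withered; 0: ≤5%). Plants raised from mixed-sown seed in submerged alluvial soil (4 cm water), 25–30 °C greenhouse; water-diluted emulsion applied onto water surface at one- to two-leaf stage, dose in g/ha.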

A further series deals with Monochoria vaginalis. The series is described as above. The note with it: Eighteenth Table. In a few lines:
as §1

Another series deals with Scirpus juncoides. Described as above. The note with it: Eighteenth Table. In outline: as §1
Another series concerns Alopecurus myosuroides. The series can be described thus: Test Example 4: herbicidal effect by application to foliage (diluvial soil, plastic box). The settings on record: for J: Application herbicide amount 320 g/ha. In a few lines: (§2)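 Seeds sown in sterilized diluvial soil, covered ~1.5 cm, grown 14 days in greenhouse at 25° C. to 30° C. Emulsion formulation diluted in water to set rate (g/ha) and sprayed onto stems and leaves. Effect scored visually 3 weeks later on 0–5 scale (5 = ≥90% herbicidal ratio, 0 = ≤5%).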

The subject of the next series is Apera spica-venti. The series is described as above. The settings on record: for L: Application herbicide amount 320 g/ha. In a few lines:
as §2

The test system of a further series is Avena fatua. The series is described as above. The note with it: for I: Application herbicide amount 320 g/ha. In outline: as §2
Another series deals with Chenopodium album. The description is as above. The settings on record: for O: Application herbicide amount 320 g/ha. In outline:
as §2

For a further series, the system named is Digitaria ciliaris. Described as above. The note with it: for F: Application herbicide amount 320 g/ha. In outline:
as §2

Series [2] concerns Echinochloa crus-galli var. crus-galli. The description is as above. The settings on record: for H: Application herbicide amount 320 g/ha. In a few lines:
as §2

For a further series, the system named is Galium spurium. Described as above. The settings on record: for Q: Application herbicide amount 320 g/ha. In a few lines: as §2
The next series relates to Lolium multiflorum Lam. The description is as above. The note with it: for K: Application herbicide amount 320 g/ha. In a few lines: as §2
For another series, the system named is Setaria viridis. Described as above. The note with it: for G: Application herbicide amount 320 g/ha. In a few lines: as §2
In a further series the test system is Veronica persica. The description is as above. In a few lines:
as §2

The subject of series [3] is Beta vulgaris ssp. vulgaris. The series can be described thus: Test Example 4: effect on crop by application to foliage (diluvial soil, plastic box). The note with it: for f: Application herbicide amount 320 g/ha, effect on crop. In a few lines:
as §2

The subject of the next series is Brassica campestris L. Described as above. The settings on record: for g: Application herbicide amount 320 g/ha, effect on crop. In outline: as §2
Another series deals with Glycine max. The series is described as above. The note with it: for c: Application herbicide amount 320 g/ha, effect on crop. In a few lines:
as §2

A further series relates to Triticum aestivum. The description is as above. The settings on record: for e: Application herbicide amount 320 g/ha, effect on crop. In a few lines: as §2
In another series the test system is Zea mays. The description is as above. The note with it: Application herbicide amount 320 g/ha; effect on crop. In a few lines: as §2
The subject of series [4] is directly sowed Oryza sativa. The description is as above. The settings on record: for d: Application herbicide amount 320 g/ha, effect on crop. In outline:
as §2

The next series has as its system Abutilon theophrasti. The series can be described thus: Test Example 4: herbicidal effect by application to foliage (diluvial soil, plastic box). The settings on record: for M: Application herbicide amount 320 g/ha. In a few lines: as §2
Where [5] appears, read: application herbicide amount 320 g/ha.
Where [6] appears, read: application herbicide amount 141 g/ha.
Setting [7] is: application to foliage, 141 g/ha.

In the case of `C=CC[S+]([O-])c1nnc2c(C(=O)Nc3nnc(C)o3)ccc(C(F)(F)F)n12` (stereo not shown) [1-074], in [1] (setting [5]), the “A (Echinochloa oryzicola Vasing.) herbicidal ratio grade” value is 2 (Herbicidal ratio of 20% or more and less than 40%). In addition, the “C (Monochoria vaginalis) herbicidal ratio grade” value with Monochoria vaginalis (setting [5]) is reported as 0 (Herbicidal ratio of 5% or less (almost no effect)). In the series with Scirpus juncoides (setting [5]), the “B (Scirpus juncoides) herbicidal ratio grade” value was 0 (Herbicidal ratio of 5% or less (almost no effect)). Moreover, the J in the series on Alopecurus myosuroides was 0 (Herbicidal ratio of 5% or less (almost no effect)). Also, the L in the series on Apera spica-venti. is recorded as 0 (Herbicidal ratio of 5% or less (almost no effect)). In the series with Avena fatua, the I is 1 (Herbicidal ratio of 5% or more and less than 20%). Also, in the series on Chenopodium album, the O is 5 (Herbicidal ratio of 90% or more (almost completely withered)). The F with Digitaria ciliaris was 4 (Herbicidal ratio of 70% or more and less than 90%). The H in series [2] is listed as 5 (Herbicidal ratio of 90% or more (almost completely withered)). For the same compound, the Q in the series with Galium spurium is 3 (Herbicidal ratio of 40% or more and less than 70%). Moreover, in the series on Lolium multiflorum Lam., the K is 0 (Herbicidal ratio of 5% or less (almost no effect)). The G in the series with Setaria viridis is 4 (Herbicidal ratio of 70% or more and less than 90%). Further, the R with Veronica persica (Application herbicide amount 320 g/ha) was 3 (Herbicidal ratio of 40% or more and less than 70%). Besides, the f in [3] was 4 (Herbicidal ratio of 70% or more and less than 90%). The g with Brassica campestris L. is 3 (Herbicidal ratio of 40% or more and less than 70%). The c with Glycine max is recorded as 0 (Herbicidal ratio of 5% or less (almost no effect)). Also, in the series on Triticum aestivum, the e is recorded as 0 (Herbicidal ratio of 5% or less (almost no effect)). For the same compound, the b with Zea mays is 0 (Herbicidal ratio of 5% or less (almost no effect)). Also, in series [4], the d was 3 (Herbicidal ratio of 40% or more and less than 70%).
As for `COc1ccc(Cc2nnc3c(C(=O)Nc4nnc(C)o4)ccc(C(F)(F)F)n23)cc1` [1-069], the “A (Echinochloa oryzicola Vasing.) herbicidal ratio grade” value in [1] (setting [5]) was 4 (Herbicidal ratio of 70% or more and less than 90%). The “C (Monochoria vaginalis) herbicidal ratio grade” value in the series with Monochoria vaginalis (setting [5]) was 4 (Herbicidal ratio of 70% or more and less than 90%). Moreover, the “B (Scirpus juncoides) herbicidal ratio grade” value in the series on Scirpus juncoides (setting [5]) was 4 (Herbicidal ratio of 70% or more and less than 90%). The M with Abutilon theophrasti was 3 (Herbicidal ratio of 40% or more and less than 70%). The J in the series on Alopecurus myosuroides was 2 (Herbicidal ratio of 20% or more and less than 40%). Besides, the L with Apera spica-venti. is 4 (Herbicidal ratio of 70% or more and less than 90%). The I in the series with Avena fatua was 2 (Herbicidal ratio of 20% or more and less than 40%). Also, in the series with Chenopodium album, the O is on record as 5 (Herbicidal ratio of 90% or more (almost completely withered)). Besides, the F with Digitaria ciliaris is given as 5 (Herbicidal ratio of 90% or more (almost completely withered)). Moreover, the H in series [2] is listed as 5 (Herbicidal ratio of 90% or more (almost completely withered)). Besides, in the series on Galium spurium, the Q was 3 (Herbicidal ratio of 40% or more and less than 70%). For the same compound, the K in the series on Lolium multiflorum Lam. is 2 (Herbicidal ratio of 20% or more and less than 40%). The G in the series on Setaria viridis is on record as 5 (Herbicidal ratio of 90% or more (almost completely withered)). The f in [3] is on record as 5 (Herbicidal ratio of 90% or more (almost completely withered)). Further, the g with Brassica campestris L. was 3 (Herbicidal ratio of 40% or more and less than 70%). The c with Glycine max was 1 (Herbicidal ratio of 5% or more and less than 20%). The e with Triticum aestivum was 1 (Herbicidal ratio of 5% or more and less than 20%). Further, the b with Zea mays is 0 (Herbicidal ratio of 5% or less (almost no effect)). For the same compound, the d in series [4] was 3 (Herbicidal ratio of 40% or more and less than 70%).
In the case of `COc1cc(OC)cc(-c2nnc3c(C(=O)Nc4nnc(C)o4)ccc(C(F)(F)F)n23)c1` [1-070], the “A (Echinochloa oryzicola Vasing.) herbicidal ratio grade” value in series [1] (setting [5]) was 5 (Herbicidal ratio of 90% or more (almost completely withered)). Also, in the series with Monochoria vaginalis (setting [5]), the “C (Monochoria vaginalis) herbicidal ratio grade” value is recorded as 5 (Herbicidal ratio of 90% or more (almost completely withered)). Moreover, the “B (Scirpus juncoides) herbicidal ratio grade” value in the series with Scirpus juncoides (setting [5]) is on record as 5 (Herbicidal ratio of 90% or more (almost completely withered)). In the series on Abutilon theophrasti, the M was 4 (Herbicidal ratio of 70% or more and less than 90%). In the series on Alopecurus myosuroides, the J is 0 (Herbicidal ratio of 5% or less (almost no effect)). The L with Apera spica-venti. is recorded as 0 (Herbicidal ratio of 5% or less (almost no effect)). Besides, the I in the series with Avena fatua was 1 (Herbicidal ratio of 5% or more and less than 20%). The O in the series with Chenopodium album was 5 (Herbicidal ratio of 90% or more (almost completely withered)). Also, the F in the series with Digitaria ciliaris is 4 (Herbicidal ratio of 70% or more and less than 90%). The H in [2] is reported as 5 (Herbicidal ratio of 90% or more (almost completely withered)). Moreover, the Q in the series with Galium spurium was 3 (Herbicidal ratio of 40% or more and less than 70%). Moreover, the K in the series with Lolium multiflorum Lam. is 0 (Herbicidal ratio of 5% or less (almost no effect)). For the same compound, the G in the series on Setaria viridis was 4 (Herbicidal ratio of 70% or more and less than 90%). In addition, the f in series [3] was 4 (Herbicidal ratio of 70% or more and less than 90%). The g in the series with Brassica campestris L. is 3 (Herbicidal ratio of 40% or more and less than 70%). For the same compound, in the series on Glycine max, the c is 0 (Herbicidal ratio of 5% or less (almost no effect)). Also, the e with Triticum aestivum was 0 (Herbicidal ratio of 5% or less (almost no effect)). Also, the b with Zea mays is 0 (Herbicidal ratio of 5% or less (almost no effect)). Besides, the d in series [4] is 4 (Herbicidal ratio of 70% or more and less than 90%).
Take `CCN(C)c1nnc2c(C(=O)Nc3nnnn3C)ccc(C(F)(F)F)n12` [2-088]: the “A (Echinochloa oryzicola Vasing.) herbicidal ratio grade” value in [1] (setting [6]) is 4 (Herbicidal ratio of 70% or more and less than 90%). Also, the “C (Monochoria vaginalis) herbicidal ratio grade” value with Monochoria vaginalis (setting [6]) was 4 (Herbicidal ratio of 70% or more and less than 90%). Moreover, in the series with Scirpus juncoides (setting [6]), the “B (Scirpus juncoides) herbicidal ratio grade” value was 3 (Herbicidal ratio of 40% or more and less than 70%). The “herbicidal effect, M (Abutilon theophrasti)” value in the series on Abutilon theophrasti (setting [7]) is 5 (Herbicidal ratio of 90% or more (almost completely withered)). Also, the “herbicidal effect, J (Alopecurus myosuroides)” value in the series with Alopecurus myosuroides (setting [7]) is 3 (Herbicidal ratio of 40% or more and less than 70%). Besides, the “herbicidal effect, L (Apera spica-venti.)” value in the series with Apera spica-venti. (setting [7]) was 4 (Herbicidal ratio of 70% or more and less than 90%). Moreover, the “herbicidal effect, I (Avena fatua)” value in the series with Avena fatua (setting [7]) was 4 (Herbicidal ratio of 70% or more and less than 90%). Besides, in the series with Chenopodium album (setting [7]), the “herbicidal effect, O (Chenopodium album)” value was 5 (Herbicidal ratio of 90% or more (almost completely withered)). Moreover, in the series on Digitaria ciliaris (setting [7]), the “herbicidal effect, F (Digitaria ciliaris)” value is 5 (Herbicidal ratio of 90% or more (almost completely withered)). Moreover, the “herbicidal effect, H (Echinochloa crus-galli var. crus-galli)” value in series [2] (setting [7]) is on record as 5 (Herbicidal ratio of 90% or more (almost completely withered)). Besides, in the series on Galium spurium (setting [7]), the “herbicidal effect, Q (Galium spurium)” value is 3 (Herbicidal ratio of 40% or more and less than 70%). Besides, the “herbicidal effect, K (Lolium multiflorum Lam.)” value in the series on Lolium multiflorum Lam. (setting [7]) is 3 (Herbicidal ratio of 40% or more and less than 70%). For the same compound, in the series with Setaria viridis (setting [7]), the “herbicidal effect, G (Setaria viridis)” value is given as 5 (Herbicidal ratio of 90% or more (almost completely withered)). For the same compound, the “herbicidal effect, R (Veronica persica)” value in the series on Veronica persica (setting [7]) was 4 (Herbicidal ratio of 70% or more and less than 90%). Moreover, in [3] (setting [7]), the “effect on crop, f (Beta vulgaris ssp. vulgaris)” value was 5 (Herbicidal ratio of 90% or more (almost completely withered)). Moreover, the “effect on crop, g (Brassica campestris L.)” value in the series with Brassica campestris L. (setting [7]) is 5 (Herbicidal ratio of 90% or more (almost completely withered)). Besides, the “effect on crop, c (Glycine max)” value in the series with Glycine max (setting [7]) was 0 (Herbicidal ratio of 5% or less (almost no effect)). Besides, in the series on Triticum aestivum (setting [7]), the “effect on crop, e (Triticum aestivum)” value is recorded as 0 (Herbicidal ratio of 5% or less (almost no effect)). In [4] (setting [7]), the “effect on crop, d (directly sowed Oryza sativa)” value was 4 (Herbicidal ratio of 70% or more and less than 90%).
